Laboratory results published in ChEMBL document CHEMBL1147134, “Indium-labeled macrocyclic conjugates of naltrindole: high-affinity radioligands for in vivo studies of peripheral delta opioid receptors” (J Med Chem, 2007).

Tests used:
[1] = molecular target: Kappa-type opioid receptor (Cavia porcellus, UniProt P41144); experiment: Displacement of [3H]U-69593 from kappa opioid receptor in guinea pig brain membranes; format: cell membranes, Membrane
[2] = molecular target: Mu-type opioid receptor (Cavia porcellus, UniProt P97266); experiment: Displacement of [3H]DAMGO from mu opioid receptor in guinea pig brain membranes; format: cell membranes, Membrane
Sequence of Mu-type opioid receptor (P97266 whole entry): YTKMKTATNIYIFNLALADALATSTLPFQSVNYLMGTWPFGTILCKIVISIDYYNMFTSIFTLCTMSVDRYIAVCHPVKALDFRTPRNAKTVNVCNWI

[3] = Lipophilicity, log D at pH7.4; format: physicochemical; settings: buffer, pH 7.4
[4] = Selectivity for mouse brain delta opioid receptor over guinea pig brain mu opioid receptor
[5] = Selectivity for mouse brain delta opioid receptor over guinea pig brain kappa opioid receptor
[6] = molecular target: Delta-type opioid receptor (Mus musculus, UniProt P32300); experiment: Displacement of [3H]NTI from delta opioid receptor in CD1 mouse brain membranes; format: cell membranes, Membrane
Sequence of Delta-type opioid receptor (P32300 whole entry): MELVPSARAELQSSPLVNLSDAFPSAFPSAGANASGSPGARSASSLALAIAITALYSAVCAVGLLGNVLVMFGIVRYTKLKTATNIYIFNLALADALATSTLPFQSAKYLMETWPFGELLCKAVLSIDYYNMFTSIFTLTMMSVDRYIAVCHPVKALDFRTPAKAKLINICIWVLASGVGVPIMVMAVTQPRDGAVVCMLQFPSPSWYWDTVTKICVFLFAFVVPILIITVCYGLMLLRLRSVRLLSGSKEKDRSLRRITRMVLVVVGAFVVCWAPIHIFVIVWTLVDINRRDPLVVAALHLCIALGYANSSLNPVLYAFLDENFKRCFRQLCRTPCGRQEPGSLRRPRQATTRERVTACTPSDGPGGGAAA

Sequence of Kappa-type opioid receptor (P41144 whole entry): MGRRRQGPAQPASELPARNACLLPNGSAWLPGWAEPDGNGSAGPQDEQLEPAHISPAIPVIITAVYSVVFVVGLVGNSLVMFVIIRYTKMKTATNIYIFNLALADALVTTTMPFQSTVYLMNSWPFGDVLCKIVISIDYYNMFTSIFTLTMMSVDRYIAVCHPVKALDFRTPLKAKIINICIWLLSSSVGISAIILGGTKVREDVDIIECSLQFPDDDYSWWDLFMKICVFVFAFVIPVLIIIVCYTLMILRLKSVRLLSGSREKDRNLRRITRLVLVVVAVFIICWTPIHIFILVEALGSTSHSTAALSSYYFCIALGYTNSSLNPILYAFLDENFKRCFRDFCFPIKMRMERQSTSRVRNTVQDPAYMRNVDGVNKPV

Structure (SMILES)	Ki [1]	Ki [2]	logD [3]	Ratio Ki [4]	Ratio Ki [5]	Ki [6]
Oc1ccc2c3c1O[C@H]1c4[nH]c5ccccc5c4C[C@@]4(O)[C@@H](C2)N(CC2CC2)CC[C@]314 [NALTRINDOLE]	14.9 nM	33.9 nM	2.41	–	–	–
O=C(O)CN1CCN(CCCCCn2c3c(c4ccccc42)C[C@@]2(O)[C@H]4Cc5ccc(O)c6c5[C@@]2(CCN4CC2CC2)[C@@H]3O6)CCN(CC(=O)O)CCN(CC(=O)O)CC1	26.2 nM	48.2 nM	–	241	131	0.2 nM
O=C(O)CN1CCN(CCn2c3c(c4ccccc42)C[C@@]2(O)[C@H]4Cc5ccc(O)c6c5[C@@]2(CCN4CC2CC2)[C@@H]3O6)CCN(CC(=O)O)CCN(CC(=O)O)CC1	2010 nM	1750 nM	–	357	410	4.9 nM
